From patent publication US10479786B2, “Protein kinase inhibitors” (Princeton Drug Discovery Inc, priority 2016, dated 2019)

Legend:
PDGFRβ = target: T1, PDGFRβ (Homo sapiens, UniProt P09619); assay: Off-chip Mobility Shift Assay, kinase inhibition; assay type: biochemical
T1 construct: purchased Carna Biosciences, Inc

ARG = target: T2, ARG (Homo sapiens, UniProt P42684); assay: Off-chip Mobility Shift Assay, kinase inhibition; assay type: biochemical
T2 construct: purchased Carna Biosciences, Inc

[1] = Pharmacokinetics in Sprague-Dawley rats, 2-in-1 dosing; assay type: in vivo; details: rat; for V: intravenous 1 mg/kg
Description: Sprague-Dawley rats (approximate weight 275-300 g, N=3) were dosed intravenously at 5 mL/kg and orally at 10 mL/kg with the above dosing solutions. Blood samples were collected into tubes containing EDTA as the anticoagulant at 0, 0.25 (intravenous only), 0.5, 1, 2, 4, 8, 10, and 24 h post-dosing, and plasma samples were prepared by centrifugation. The plasma samples were mixed with 3× volumes of acetonitrile containing 100 nM reserpine as the internal standard, and centrifuged at 4000 RPM for 15 min. The supernatants were injected for LC/MS analysis which were carried out on a AB Sciex 4000 Q Trap LC/MS/MS system coupled with Shimadzu Prominence UFLCXR 20 series (including a CBM-20A controller, two LC-20ADXR solvent delivery units, SIL-20AC HT autosampler, CTO-20A column oven, and a SPD-20A UV detector). The samples were separated on a Phenomenex Columbus column (C18, 4 μm, 50×2 mm) eluted with two solvent systems: 2 mM ammonium acetate in water containing 0.1% formic acid (A) and methanol (B) at a linear gradient starting with 25% B. Electrospray ionization in positive mode was used to acquire LC/MS/MS data.

DDR2 = target: T3, DDR2 (Homo sapiens, UniProt Q16832); assay: Off-chip Mobility Shift Assay, kinase inhibition; assay type: biochemical
T3 construct: purchased Carna Biosciences, Inc
T3 sequence (Q16832 22-855): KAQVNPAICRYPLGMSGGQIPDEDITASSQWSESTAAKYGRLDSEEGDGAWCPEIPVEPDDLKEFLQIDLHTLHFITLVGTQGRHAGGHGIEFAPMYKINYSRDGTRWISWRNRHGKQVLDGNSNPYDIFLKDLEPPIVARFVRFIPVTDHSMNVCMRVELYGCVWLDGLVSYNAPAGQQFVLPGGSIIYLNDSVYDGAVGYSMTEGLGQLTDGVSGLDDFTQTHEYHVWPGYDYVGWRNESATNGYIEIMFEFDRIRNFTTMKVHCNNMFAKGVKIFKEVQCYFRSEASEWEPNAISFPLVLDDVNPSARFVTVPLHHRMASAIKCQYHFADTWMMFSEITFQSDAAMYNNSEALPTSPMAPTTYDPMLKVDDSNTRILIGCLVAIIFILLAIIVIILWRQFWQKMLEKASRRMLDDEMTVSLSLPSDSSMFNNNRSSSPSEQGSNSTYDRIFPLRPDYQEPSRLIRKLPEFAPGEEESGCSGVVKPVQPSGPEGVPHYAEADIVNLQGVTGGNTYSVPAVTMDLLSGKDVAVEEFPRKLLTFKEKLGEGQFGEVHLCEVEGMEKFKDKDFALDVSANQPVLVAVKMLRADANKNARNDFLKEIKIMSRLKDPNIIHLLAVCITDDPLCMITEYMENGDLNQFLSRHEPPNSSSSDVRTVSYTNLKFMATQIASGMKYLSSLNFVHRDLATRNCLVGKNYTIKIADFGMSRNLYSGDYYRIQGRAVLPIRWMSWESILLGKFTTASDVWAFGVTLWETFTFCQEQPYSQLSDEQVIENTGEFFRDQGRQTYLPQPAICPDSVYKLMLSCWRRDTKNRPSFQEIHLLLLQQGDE

HCK = target: T4, HCK (Homo sapiens, UniProt P08631); assay: Off-chip Mobility Shift Assay, kinase inhibition; assay type: biochemical
T4 construct: purchased Carna Biosciences, Inc

PDGFRα = target: T5, PDGFRα (Homo sapiens, UniProt P16234); assay: Off-chip Mobility Shift Assay, kinase inhibition; assay type: biochemical
T5 construct: purchased Carna Biosciences, Inc

[2] = tested on: battery of selected protein kinases; assay: In vitro screen of a battery of selected protein kinases (summary statement); assay type: biochemical; details: BTK, BMX, ABL, ABL(E255K), SRC, ACK, ARG, BLK, DDR2, EPHA, FGR, FMS, FRK, FYN, HCK, LCK, LYN, PDGFRα, PDGFRβ, YES, PIK3CA/PIK3R1, among others
LYNa = target: T6, LYNa (Homo sapiens, UniProt P07948); assay: Off-chip Mobility Shift Assay, kinase inhibition; assay type: biochemical
T6 construct: purchased Carna Biosciences, Inc

FGR = target: T7, FGR (Homo sapiens, UniProt P09769); assay: Off-chip Mobility Shift Assay, kinase inhibition; assay type: biochemical
T7 construct: purchased Carna Biosciences, Inc

SU-DHL-4 = assay: Cell inhibition assay (PrestoBlue, 48 h); assay type: cell-based; details: Homo sapiens, SU-DHL-4, 48 h, SU-DHL-4 diffuse large B-cell lymphoma cells, read-out: IC50, inhibition of growth
Mino = assay: Cell inhibition assay (PrestoBlue, 48 h); assay type: cell-based; details: Homo sapiens, Mino cells, read-out: IC50, inhibition of growth
[3] = Table 2, co-dosed with compound IV
[4] = Table 3, co-dosed with compound X

T6 sequence (P07948 whole entry): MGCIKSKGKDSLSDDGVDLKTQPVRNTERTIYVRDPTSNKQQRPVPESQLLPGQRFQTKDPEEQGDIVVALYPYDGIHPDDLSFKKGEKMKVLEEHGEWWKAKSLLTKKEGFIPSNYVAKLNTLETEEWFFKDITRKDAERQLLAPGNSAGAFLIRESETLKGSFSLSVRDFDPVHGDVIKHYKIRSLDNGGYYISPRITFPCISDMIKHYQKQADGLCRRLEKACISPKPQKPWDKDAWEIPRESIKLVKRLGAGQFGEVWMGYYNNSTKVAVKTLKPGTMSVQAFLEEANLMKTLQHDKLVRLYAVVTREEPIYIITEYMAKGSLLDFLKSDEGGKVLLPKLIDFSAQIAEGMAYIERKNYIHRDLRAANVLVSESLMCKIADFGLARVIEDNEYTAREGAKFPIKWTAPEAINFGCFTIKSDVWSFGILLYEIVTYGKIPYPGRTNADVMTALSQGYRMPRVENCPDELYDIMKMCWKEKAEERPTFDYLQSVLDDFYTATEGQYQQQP
T5 sequence (P16234 24-1089): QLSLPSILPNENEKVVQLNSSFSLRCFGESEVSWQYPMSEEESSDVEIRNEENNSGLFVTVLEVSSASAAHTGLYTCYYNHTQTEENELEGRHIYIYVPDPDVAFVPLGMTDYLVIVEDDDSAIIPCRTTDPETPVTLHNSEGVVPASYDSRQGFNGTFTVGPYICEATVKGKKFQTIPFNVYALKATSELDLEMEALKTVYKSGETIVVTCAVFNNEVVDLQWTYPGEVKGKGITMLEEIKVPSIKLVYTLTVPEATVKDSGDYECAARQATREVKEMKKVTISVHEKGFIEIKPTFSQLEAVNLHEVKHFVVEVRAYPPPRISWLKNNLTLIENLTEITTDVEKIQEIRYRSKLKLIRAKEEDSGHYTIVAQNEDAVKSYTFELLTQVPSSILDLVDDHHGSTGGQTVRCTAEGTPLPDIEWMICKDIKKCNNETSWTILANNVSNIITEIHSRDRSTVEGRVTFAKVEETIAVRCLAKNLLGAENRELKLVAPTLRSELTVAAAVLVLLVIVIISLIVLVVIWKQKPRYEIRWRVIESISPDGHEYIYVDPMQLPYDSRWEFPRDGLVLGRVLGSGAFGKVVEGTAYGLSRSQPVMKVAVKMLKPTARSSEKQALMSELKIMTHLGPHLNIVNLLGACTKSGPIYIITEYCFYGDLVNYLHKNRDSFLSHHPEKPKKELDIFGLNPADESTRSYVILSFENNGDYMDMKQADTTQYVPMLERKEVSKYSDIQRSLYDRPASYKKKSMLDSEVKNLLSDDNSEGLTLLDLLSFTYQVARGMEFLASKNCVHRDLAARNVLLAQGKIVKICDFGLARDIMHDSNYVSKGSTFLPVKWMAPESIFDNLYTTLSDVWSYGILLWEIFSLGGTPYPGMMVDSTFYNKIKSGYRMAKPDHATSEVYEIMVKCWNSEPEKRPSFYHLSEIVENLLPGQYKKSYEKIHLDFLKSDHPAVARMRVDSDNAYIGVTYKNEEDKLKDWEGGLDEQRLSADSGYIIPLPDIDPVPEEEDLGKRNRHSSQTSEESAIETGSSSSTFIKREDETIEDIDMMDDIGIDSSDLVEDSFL
T4 sequence (P08631 whole entry): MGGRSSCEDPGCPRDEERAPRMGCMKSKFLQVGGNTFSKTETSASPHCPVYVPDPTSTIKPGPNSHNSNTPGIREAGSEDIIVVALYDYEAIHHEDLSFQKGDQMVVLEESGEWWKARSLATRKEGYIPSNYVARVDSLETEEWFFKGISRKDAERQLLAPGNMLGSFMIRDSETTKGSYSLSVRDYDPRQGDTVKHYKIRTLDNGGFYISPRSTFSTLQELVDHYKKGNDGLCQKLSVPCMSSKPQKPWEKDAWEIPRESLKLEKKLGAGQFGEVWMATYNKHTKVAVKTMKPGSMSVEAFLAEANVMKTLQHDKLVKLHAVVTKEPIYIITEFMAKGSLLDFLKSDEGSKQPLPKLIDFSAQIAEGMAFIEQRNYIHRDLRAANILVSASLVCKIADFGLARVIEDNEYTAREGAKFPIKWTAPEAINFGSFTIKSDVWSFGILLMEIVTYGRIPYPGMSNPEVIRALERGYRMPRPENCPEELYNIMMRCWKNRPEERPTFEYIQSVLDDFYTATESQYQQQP
T2 sequence (P42684 whole entry): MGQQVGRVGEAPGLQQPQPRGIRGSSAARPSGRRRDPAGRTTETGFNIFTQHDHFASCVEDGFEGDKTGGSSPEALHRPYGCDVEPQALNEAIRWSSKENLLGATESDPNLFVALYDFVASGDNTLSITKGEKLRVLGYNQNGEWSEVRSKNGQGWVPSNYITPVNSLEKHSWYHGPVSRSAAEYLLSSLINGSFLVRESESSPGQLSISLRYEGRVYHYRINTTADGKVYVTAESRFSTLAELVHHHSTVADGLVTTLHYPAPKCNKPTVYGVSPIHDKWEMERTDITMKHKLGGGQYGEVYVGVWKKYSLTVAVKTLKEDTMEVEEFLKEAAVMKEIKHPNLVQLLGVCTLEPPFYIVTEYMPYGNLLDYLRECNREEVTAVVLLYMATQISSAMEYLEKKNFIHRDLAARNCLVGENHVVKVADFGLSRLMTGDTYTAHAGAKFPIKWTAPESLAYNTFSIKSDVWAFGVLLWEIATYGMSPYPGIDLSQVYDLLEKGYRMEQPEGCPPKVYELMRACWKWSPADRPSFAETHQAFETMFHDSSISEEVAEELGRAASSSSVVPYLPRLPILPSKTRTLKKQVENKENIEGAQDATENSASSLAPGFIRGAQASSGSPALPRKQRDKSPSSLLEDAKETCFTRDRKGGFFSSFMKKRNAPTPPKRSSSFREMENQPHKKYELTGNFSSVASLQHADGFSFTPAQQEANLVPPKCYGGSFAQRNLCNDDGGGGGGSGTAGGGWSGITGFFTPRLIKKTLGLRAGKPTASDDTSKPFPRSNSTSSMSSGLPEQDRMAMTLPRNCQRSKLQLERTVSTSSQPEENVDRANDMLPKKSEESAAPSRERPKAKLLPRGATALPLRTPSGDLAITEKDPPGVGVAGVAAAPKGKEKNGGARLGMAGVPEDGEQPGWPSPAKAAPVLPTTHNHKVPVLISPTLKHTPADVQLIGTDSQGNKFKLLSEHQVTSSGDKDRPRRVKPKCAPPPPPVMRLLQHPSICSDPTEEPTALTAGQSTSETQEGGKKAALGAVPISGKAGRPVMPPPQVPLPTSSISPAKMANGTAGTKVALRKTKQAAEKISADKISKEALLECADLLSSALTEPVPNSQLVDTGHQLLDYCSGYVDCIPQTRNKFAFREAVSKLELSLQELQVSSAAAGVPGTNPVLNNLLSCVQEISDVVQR
T1 sequence (P09619 33-1106): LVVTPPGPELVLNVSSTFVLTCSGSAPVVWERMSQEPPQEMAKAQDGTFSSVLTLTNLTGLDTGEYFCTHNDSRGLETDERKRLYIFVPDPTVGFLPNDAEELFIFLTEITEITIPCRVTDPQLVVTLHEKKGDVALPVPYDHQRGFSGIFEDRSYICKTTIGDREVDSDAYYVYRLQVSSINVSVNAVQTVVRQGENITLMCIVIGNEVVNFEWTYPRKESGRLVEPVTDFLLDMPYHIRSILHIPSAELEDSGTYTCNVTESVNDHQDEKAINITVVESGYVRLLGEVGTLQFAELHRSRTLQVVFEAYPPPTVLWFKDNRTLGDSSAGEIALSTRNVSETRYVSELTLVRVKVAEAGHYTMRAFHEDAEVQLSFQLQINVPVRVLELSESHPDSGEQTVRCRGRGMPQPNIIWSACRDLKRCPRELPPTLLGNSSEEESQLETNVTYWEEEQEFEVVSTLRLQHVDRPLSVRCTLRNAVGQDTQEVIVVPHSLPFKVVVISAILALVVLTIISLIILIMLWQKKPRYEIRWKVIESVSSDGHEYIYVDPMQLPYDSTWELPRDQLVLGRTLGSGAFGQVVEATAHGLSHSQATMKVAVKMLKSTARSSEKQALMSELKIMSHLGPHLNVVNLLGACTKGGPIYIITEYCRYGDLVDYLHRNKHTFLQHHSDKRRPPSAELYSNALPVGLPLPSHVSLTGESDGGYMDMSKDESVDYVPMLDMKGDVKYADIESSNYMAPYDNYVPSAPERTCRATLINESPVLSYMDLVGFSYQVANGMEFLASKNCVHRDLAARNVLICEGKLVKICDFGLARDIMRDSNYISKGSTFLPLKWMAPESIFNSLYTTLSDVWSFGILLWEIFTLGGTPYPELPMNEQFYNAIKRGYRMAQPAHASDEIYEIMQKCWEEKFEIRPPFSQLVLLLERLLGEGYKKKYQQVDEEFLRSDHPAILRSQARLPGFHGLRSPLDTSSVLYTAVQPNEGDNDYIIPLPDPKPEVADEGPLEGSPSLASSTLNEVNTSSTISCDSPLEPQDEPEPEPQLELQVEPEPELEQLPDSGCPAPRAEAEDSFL
T7 sequence (P09769 whole entry): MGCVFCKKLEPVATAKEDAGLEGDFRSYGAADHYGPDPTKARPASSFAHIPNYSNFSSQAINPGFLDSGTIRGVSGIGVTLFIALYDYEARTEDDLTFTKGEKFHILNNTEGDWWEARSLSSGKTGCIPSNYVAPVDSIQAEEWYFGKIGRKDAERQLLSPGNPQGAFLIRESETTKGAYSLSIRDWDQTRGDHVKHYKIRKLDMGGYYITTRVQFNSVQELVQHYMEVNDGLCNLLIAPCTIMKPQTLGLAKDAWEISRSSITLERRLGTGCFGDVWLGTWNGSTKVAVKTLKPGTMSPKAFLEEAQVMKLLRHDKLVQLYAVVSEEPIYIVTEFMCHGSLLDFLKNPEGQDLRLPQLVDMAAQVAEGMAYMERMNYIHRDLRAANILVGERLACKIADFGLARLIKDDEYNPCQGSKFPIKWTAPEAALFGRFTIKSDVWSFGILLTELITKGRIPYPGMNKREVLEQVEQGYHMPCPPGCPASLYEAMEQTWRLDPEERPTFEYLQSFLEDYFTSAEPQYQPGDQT

Row | Structure (SMILES) | inhibition at 0.01 µM (PDGFRβ) | inhibition at 0.01 µM (ARG) | V [1, 3] | V [1, 4] | inhibition at 0.01 µM (DDR2) | inhibition at 0.01 µM (HCK) | inhibition at 0.01 µM (PDGFRα) | activity to inhibit kinases [2] | inhibition at 0.01 µM (LYNa) | inhibition at 0.01 µM (FGR) | IC50 (SU-DHL-4) | IC50 (Mino) | F, percent oral bioavailability ([1]; PO 5 mg/kg versus intravenous 1 mg/kg, AUCinf dose normalized, Table 3)
1 | [2H]c1cc(C)c(NC(=O)c2cnc(Nc3cc(N4CCN(CCO)CC4)nc(C)n3)s2)c(Cl)c1 [Compound III] | > 50% | > 50% | 3 ± 0 L/kg | 3 ± 0 L/kg | > 50% | > 50% | > 50% | potent activity | > 50% | > 50% |  |  | 
2 | Cc1nc(Nc2ncc(C(=O)Nc3c(C)cccc3Cl)s2)cc(N2CCCC2)n1 [Compound XIV, N-(2-chloro-6-methylphenyl)-2-[[2-methyl-6-(pyrrolidin-1-yl)pyrimidin-4-yl]amino]thiazole-5-carboxamide] |  |  |  |  |  |  |  |  |  |  | < 0.02 µM | < 0.05 µM | 
3 | Cc1nc(Nc2ncc(C(=O)Nc3c(C)cccc3Cl)s2)cc(N2CCN(CCO)CC2)n1 [Dasatinib, reference compound] |  |  | 3 ± 0 L/kg | 2 ± 0 L/kg |  |  |  |  |  |  |  |  | 3.9±1%
